Patent US20250255867A1 (Kadmon Corporation, LLC, priority 2022, published 2025)
Where “and” joins values, the source holds several entries; their conditions need not be identical. Equal entries are not always repeated.

How the values were obtained:
Assay type in all cases: in vivo, human
patients with cGVHD [1] = assay: Example 1: time to next therapy, failure-free survival, overall survival
Description: Time to next therapy (TTNT). The TTNT was defined as the time (in months) from first treatment to the time of new systemic cGVHD treatment. TTNT was censored by last response assessment or long term follow up assessment, whichever was earlier. Kaplan-Meier survival method was used for the analysis. […] Analysis was performed on mITT population.
Failure-free survival was defined as the time (in months) from first dose of study drug to either the start of another new systemic treatment for cGVHD, relapse of the underlying disease or death. If no such events happened, FFS was censored by last response assessment or long term follow up assessment, whichever was the latest and available. Kaplan-Meier survival method was used for the analysis. Analysis was performed on mITT population.
Overall survival was defined as the time (in months) from first dose of study drug to the death due to any reason. If there was no death, OS was censored by last visit, last long term follow-up, or study cutoff date, whichever was the latest. Kaplan-Meier survival method was used for the analysis.

patients with cGVHD [2] = assay: Example 1: Global Severity Rating and participant self-reported symptom activity
Description: Maximal Improvement from Baseline in Global Severity Rating (GSR) by Clinician-reported cGVHD Assessment. The GSR assessment was performed by asking the participants to rate their disease severity of cGVHD symptoms on a 0 to 10-point numeric rating scale, where score 0 indicated ‘not at all severe cGVHD symptoms’ and score 10 indicated ‘most severe cGVHD symptoms possible’. The response was defined using the scores from 9 organs: skin, eyes, mouth, esophagus, upper gastrointestinal (GI) track, lower GI tract, liver, lungs, and joints and fascia plus GSR. End of treatment (EOT) visit was performed within 3 days after the participant's last dose of study drug. Baseline value was defined as valid and last non-missing value obtained within 28 days prior to participant receiving first study medication. […] Analysis was performed on mITT population.
Number of Participants With Maximal Improvement From Baseline in Symptom Activity by cGVHD Activity Assessment Participant Self-Report. cGVHD symptom severity was self-reported by participants. Participants were asked to rate their disease symptom severity over the last week on the following questions: skin itching at its worst, moth dryness at its worst, mouth pain at its worst, mouth sensitivity at its worst, main compliant on eyes, symptom severity on eyes. The severity rating was done on a 0 to 10-point numeric rating scare, where score 0 indicated ‘not at all severe cGVHD symptoms’ and score 10 indicated ‘most severe cGVHD symptoms possible’. EOT visit was performed within 3 days after the participant's last dose of study drug. Baseline value was defined as valid and last non-missing value obtained within 28 days prior to participant receiving first study medication. […] Analysis was performed on mITT population.

subjects with BOS = assay: Example 3: Lee Symptom Scale lung score in BOS
From the text: Following the methodology used for the LSS, we identified a 10-point difference (half a standard deviation from baseline scores) as being a clinically meaningful organ-specific change in this dataset. (Lee S et al. Development and validation of a scale to measure symptoms of chronic graft-versus-host disease. Biol Blood Marrow Transplant 2002; 8 (8): 444-452; Teh C et al. Reliability and Validity of the Modified 7-Day Lee Chronic Graft-versus-Host Disease Symptom Scale. Biol Blood Marrow Transplant 2020; 26 (3): 562-567.) Forty subjects (68%) experienced a clinically meaningful improvement (10-point reduction) in the LSS lung score.

SMILES: CC(C)NC(=O)COc1cccc(-c2nc(Nc3ccc4[nH]ncc4c3)c3ccccc3n2)c1 [Belumosudil, 2-{3-[4-(1H-indazol-5-ylamino)-2-quinazolinyl]phenoxy}-N-(propan-2-yl) acetamide]
- FFS rate at 6 months (patients with cGVHD [1]): 76%
- FFS rate at 12 months (patients with cGVHD [1]): 47%
- Maximal improvement from baseline in GSR of 0 (patients with cGVHD [2]; Cohort 1 200 mg QD): 5 (29%) participants
- Maximal improvement from baseline in GSR of 1 (patients with cGVHD [2]; Cohort 1 200 mg QD): 0 (0%) participants
- Maximal improvement from baseline in GSR of 3 (patients with cGVHD [2]; Cohort 1 200 mg QD): 0 (0%) participants
- Maximal improvement from baseline in GSR of −1 (patients with cGVHD [2]; Cohort 1 200 mg QD): 1 (6%) participants
- Maximal improvement from baseline in GSR of −2 (patients with cGVHD [2]; Cohort 1 200 mg QD): 2 (12%) participants
- Maximal improvement from baseline in GSR of −4 (patients with cGVHD [2]; Cohort 1 200 mg QD): 2 (12%) participants
- Maximal improvement from baseline in GSR of −5 (patients with cGVHD [2]; Cohort 1 200 mg QD): 2 (12%) participants
- Maximal improvement from baseline in GSR of −6 (patients with cGVHD [2]; Cohort 1 200 mg QD): 0 (0%) participants
- Maximal improvement from baseline in GSR of −7 (patients with cGVHD [2]; Cohort 1 200 mg QD): 0 (0%) participants
- Maximal improvement in self-reported symptom activity of 0 (patients with cGVHD [2]; Cohort 1 200 mg QD): 1 participants
- Maximal improvement in self-reported symptom activity of 1 (patients with cGVHD [2]; Cohort 1 200 mg QD): 0 participants
- Maximal improvement in self-reported symptom activity of 2 (patients with cGVHD [2]; Cohort 1 200 mg QD): 0 participants
- Maximal improvement in self-reported symptom activity of 4 (patients with cGVHD [2]; Cohort 1 200 mg QD): 1 participants
- Maximal improvement in self-reported symptom activity of −1 (patients with cGVHD [2]; Cohort 1 200 mg QD): 2 participants
- Maximal improvement in self-reported symptom activity of −2 (patients with cGVHD [2]; Cohort 1 200 mg QD): 2 participants
- Maximal improvement in self-reported symptom activity of −3 (patients with cGVHD [2]; Cohort 1 200 mg QD): 2 participants
- Maximal improvement in self-reported symptom activity of −4 (patients with cGVHD [2]; Cohort 1 200 mg QD): 2 participants
- Maximal improvement in self-reported symptom activity of −5 (patients with cGVHD [2]; Cohort 1 200 mg QD): 2 participants
- Maximal improvement in self-reported symptom activity of −6 (patients with cGVHD [2]; Cohort 1 200 mg QD): 0 participants
- Maximal improvement in self-reported symptom activity of −7 (patients with cGVHD [2]; Cohort 1 200 mg QD): 3 participants
- Maximal improvement in self-reported symptom activity of −8 (patients with cGVHD [2]; Cohort 1 200 mg QD): 0 participants
- Maximal improvement from baseline in GSR of 0 (patients with cGVHD [2]; Cohort 2 200 mg BID): 4 (25%) participants
- Maximal improvement from baseline in GSR of 1 (patients with cGVHD [2]; Cohort 2 200 mg BID): 1 (6%) participants
- Maximal improvement from baseline in GSR of 3 (patients with cGVHD [2]; Cohort 2 200 mg BID): 1 (6%) participants
- Maximal improvement from baseline in GSR of −1 (patients with cGVHD [2]; Cohort 2 200 mg BID): 2 (13%) participants
- Maximal improvement from baseline in GSR of −2 (patients with cGVHD [2]; Cohort 2 200 mg BID): 4 (25%) participants
- Maximal improvement from baseline in GSR of −3 (patients with cGVHD [2]; Cohort 2 200 mg BID): 0 (0%) participants
- Maximal improvement from baseline in GSR of −4 (patients with cGVHD [2]; Cohort 2 200 mg BID): 0 (0%) participants
- Maximal improvement from baseline in GSR of −5 (patients with cGVHD [2]; Cohort 2 200 mg BID): 2 (13%) participants
- Maximal improvement from baseline in GSR of −6 (patients with cGVHD [2]; Cohort 2 200 mg BID): 2 (13%) participants
- Maximal improvement from baseline in GSR of −7 (patients with cGVHD [2]; Cohort 2 200 mg BID): 0 (0%) participants
- Maximal improvement in self-reported symptom activity of 0 (patients with cGVHD [2]; Cohort 2 200 mg BID): 1 participants
- Maximal improvement in self-reported symptom activity of 1 (patients with cGVHD [2]; Cohort 2 200 mg BID): 0 participants
- Maximal improvement in self-reported symptom activity of 2 (patients with cGVHD [2]; Cohort 2 200 mg BID): 1 participants
- Maximal improvement in self-reported symptom activity of 4 (patients with cGVHD [2]; Cohort 2 200 mg BID): 0 participants
- Maximal improvement in self-reported symptom activity of −1 (patients with cGVHD [2]; Cohort 2 200 mg BID): 2 participants
- Maximal improvement in self-reported symptom activity of −2 (patients with cGVHD [2]; Cohort 2 200 mg BID): 3 participants
- Maximal improvement in self-reported symptom activity of −3 (patients with cGVHD [2]; Cohort 2 200 mg BID): 2 participants
- Maximal improvement in self-reported symptom activity of −4 (patients with cGVHD [2]; Cohort 2 200 mg BID): 2 participants
- Maximal improvement in self-reported symptom activity of −5 (patients with cGVHD [2]; Cohort 2 200 mg BID): 0 participants
- Maximal improvement in self-reported symptom activity of −6 (patients with cGVHD [2]; Cohort 2 200 mg BID): 1 participants
- Maximal improvement in self-reported symptom activity of −7 (patients with cGVHD [2]; Cohort 2 200 mg BID): 2 participants
- Maximal improvement in self-reported symptom activity of −8 (patients with cGVHD [2]; Cohort 2 200 mg BID): 0 participants
- Maximal improvement from baseline in GSR of 0 (patients with cGVHD [2]; Cohort 3 400 mg QD): 3 (14%) participants
- Maximal improvement from baseline in GSR of 1 (patients with cGVHD [2]; Cohort 3 400 mg QD): 1 (5%) participants
- Maximal improvement from baseline in GSR of 3 (patients with cGVHD [2]; Cohort 3 400 mg QD): 0 (0%) participants
- Maximal improvement from baseline in GSR of −1 (patients with cGVHD [2]; Cohort 3 400 mg QD): 4 (19%) participants
- Maximal improvement from baseline in GSR of −2 (patients with cGVHD [2]; Cohort 3 400 mg QD): 4 (19%) participants
- Maximal improvement from baseline in GSR of −3 (patients with cGVHD [2]; Cohort 3 400 mg QD): 1 (5%) participants
- Maximal improvement from baseline in GSR of −4 (patients with cGVHD [2]; Cohort 3 400 mg QD): 3 (14%) participants
- Maximal improvement from baseline in GSR of −5 (patients with cGVHD [2]; Cohort 3 400 mg QD): 0 (0%) participants
- Maximal improvement from baseline in GSR of −6 (patients with cGVHD [2]; Cohort 3 400 mg QD): 0 (0%) participants
- Maximal improvement from baseline in GSR of −7 (patients with cGVHD [2]; Cohort 3 400 mg QD): 2 (10%) participants
- Maximal improvement in self-reported symptom activity of 0 (patients with cGVHD [2]; Cohort 3 400 mg QD): 0 participants
- Maximal improvement in self-reported symptom activity of 1 (patients with cGVHD [2]; Cohort 3 400 mg QD): 1 participants
- Maximal improvement in self-reported symptom activity of 2 (patients with cGVHD [2]; Cohort 3 400 mg QD): 2 participants
- Maximal improvement in self-reported symptom activity of 4 (patients with cGVHD [2]; Cohort 3 400 mg QD): 0 participants
- Maximal improvement in self-reported symptom activity of −1 (patients with cGVHD [2]; Cohort 3 400 mg QD): 2 participants
- Maximal improvement in self-reported symptom activity of −2 (patients with cGVHD [2]; Cohort 3 400 mg QD): 2 participants
- Maximal improvement in self-reported symptom activity of −3 (patients with cGVHD [2]; Cohort 3 400 mg QD): 2 participants
- Maximal improvement in self-reported symptom activity of −4 (patients with cGVHD [2]; Cohort 3 400 mg QD): 1 participants
- Maximal improvement in self-reported symptom activity of −5 (patients with cGVHD [2]; Cohort 3 400 mg QD): 2 participants
- Maximal improvement in self-reported symptom activity of −6 (patients with cGVHD [2]; Cohort 3 400 mg QD): 4 participants
- Maximal improvement in self-reported symptom activity of −7 (patients with cGVHD [2]; Cohort 3 400 mg QD): 0 participants
- Maximal improvement in self-reported symptom activity of −8 (patients with cGVHD [2]; Cohort 3 400 mg QD): 1 participants
- Subjects with clinically meaningful improvement (10-point reduction) in LSS lung score (subjects with BOS; 59 subjects): 68%
- Clinically meaningful improvement in LSS lung score (subjects with BOS; baseline NIH lung score 1): 66%
- Clinically meaningful improvement in LSS lung score (subjects with BOS; baseline NIH lung score 2): 61%
- Clinically meaningful improvement in LSS lung score (subjects with BOS; baseline NIH lung score 3): 100%
- Clinically meaningful improvement in LSS lung score (subjects with BOS; non-responders): 68% and 67.5%
- Clinically meaningful improvement in LSS lung score (subjects with BOS; subjects with 35% best improvement in % FEV1): 61%
- Clinically meaningful improvement in LSS lung score (subjects with BOS; subjects with <5% best improvement in % FEV1): 69%
